Measured values as given in patent US4120894A, “Sulfo-m-phenylenebis(sulfonylimino)diisophthalic acid salts” (American Cyanamid Company, priority 1977, dated 1978).
Where a name gives a salt, the structure may show the parent alone.

Key:
[1] = test system: activated human C1; assay: Test, Code 026 (C1 inhibitor); type: biochemical; details: activity in wells, two-fold serial dilution assay; higher well number indicates higher activity
From the text: (§1) An active inhibitor protects C2 C1 and C4; (ii) Test, Code 035 (C3-C9 inhibitor) -- This test determines the ability of thee late components of human complement (C3-C9) to lyse EAC 142 in the presence of appropriate dilutions of the test compound. An active inhibitor protects EAC 142 from lysis by human C3-C9; (iii) Test, Code 036 (C-Shunt inhibitor) -- In this test human erythrocytes rendered fragile are lysed in autologous serum via the shunt pathway activated by cobra venom factor in the present of appropriate dilutions of the test compound. Inhibition of the shunt pathway results in failure of lysis; (iv) Forssman Vasculitis Test -- Here, the well known complement dependent lesion, Forssman vasculitis, is produced in guinea pigs by intradermal injection of rabbit anti-Forssman antiserum. […]

[2] = test system: shunt pathway; assay: Test, Code 036 (C-Shunt inhibitor), lysis of human erythrocytes in autologous serum via shunt pathway activated by cobra venom factor; type: cell-based; details: activity in wells, two-fold serial dilution assay; higher well number indicates higher activity
From the text: as §1

[3] = test system: whole complement; assay: Complement Level Reduction Test (serum of dosed guinea pigs, capillary tube assay); type: in vivo; details: 200 mg/kg i.p.
[4] = test system: hereditary angioneurotic edema; details: literature report; cited from earlier work
[5] = test system: complement system; details: literature report; cited from earlier work
[6] = test system: human serum complement; details: in vitro and in vivo, judged by reduction in total hemolytic complement activity; cited from earlier work

Row | Molecule | treatment of hereditary angioneurotic edema [4] | anticomplementary effect / complement inhibition [5] | further results
1 | O=C(O)c1cc(NS(=O)(=O)c2cc(S(=O)(=O)O)cc(S(=O)(=O)Nc3cc(C(=O)O)cc(C(=O)O)c3)c2)cc(C(=O)O)c1 [5,5'[5-Sulfo-m-phenylenebis(sulfonylimino)]diisophathalic acid sodium salt, compound with ethanol (1:1)] | – | – | C1 026 Wells [1]: +4 Wells; Shunt Inhibition 036 Wells [2]: +1 Wells; In Vivo Activity (Guinea Pig) % Inhibition, Intraperitoneal, 30 minutes ([3]; 30 min): -44%; In Vivo Activity (Guinea Pig) % Inhibition, Intraperitoneal, 60 minutes ([3]; 60 min): -42%; In Vivo Activity (Guinea Pig) % Inhibition, Intraperitoneal, 120 minutes ([3]; 120 min): -49%
2 | Cc1ccc(C(=O)Nc2ccc(S(=O)(=O)O)c3cc(S(=O)(=O)O)cc(S(=O)(=O)O)c23)cc1NC(=O)c1cccc(NC(=O)Nc2cccc(C(=O)Nc3cc(C(=O)Nc4ccc(S(=O)(=O)O)c5cc(S(=O)(=O)O)cc(S(=O)(=O)O)c45)ccc3C)c2)c1 [Suramin] | used with success | competitive inhibitor of the complement system | –
3 | Nc1ccc2cc(S(=O)(=O)O)cc(O)c2c1N=Nc1ccc(NC(=O)Nc2ccc(N=Nc3c(N)ccc4cc(S(=O)(=O)O)cc(O)c34)c(S(=O)(=O)O)c2)cc1S(=O)(=O)O [chlorazol fast pink, 3,3'-ureylenebis-[6-(2-amino-8-hydroxy-6-sulfo-1-naphthylazo)]benzenesulfonic acid, tetrasodium salt] | – | anticomplementary effect | –
4 | NCCCCCC(=O)O [epsilon-aminocaproic acid] | used with success | – | –
5 | NC[C@H]1CC[C@H](C(=O)O)CC1 [tranexamic acid] | used with success | – | –
6 | heparin | – | anticomplementary effect | –
7 | pentosan-poly-sulfoester | – | – | anticomplementary activity on human serum [6]: anticomplementary activity on human serum both in vitro and in vivo
